In ChEMBL document CHEMBL5291721, “A preclinical secondary pharmacology resource illuminates target-adverse drug reaction associations of marketed drugs” (Nat Commun, 2023) one finds AC50 data, which are given here for five molecules.

For assay [1], the target named is Voltage-dependent L-type calcium channel subunit alpha-1C (Homo sapiens, UniProt Q13936). The format is functional, cell-based.
For assay [2], the target named is Sodium channel protein type 5 subunit alpha (Homo sapiens, UniProt Q14524). The format is functional, cell-based.
Chain of Sodium channel protein type 5 subunit alpha (Q14524 whole entry): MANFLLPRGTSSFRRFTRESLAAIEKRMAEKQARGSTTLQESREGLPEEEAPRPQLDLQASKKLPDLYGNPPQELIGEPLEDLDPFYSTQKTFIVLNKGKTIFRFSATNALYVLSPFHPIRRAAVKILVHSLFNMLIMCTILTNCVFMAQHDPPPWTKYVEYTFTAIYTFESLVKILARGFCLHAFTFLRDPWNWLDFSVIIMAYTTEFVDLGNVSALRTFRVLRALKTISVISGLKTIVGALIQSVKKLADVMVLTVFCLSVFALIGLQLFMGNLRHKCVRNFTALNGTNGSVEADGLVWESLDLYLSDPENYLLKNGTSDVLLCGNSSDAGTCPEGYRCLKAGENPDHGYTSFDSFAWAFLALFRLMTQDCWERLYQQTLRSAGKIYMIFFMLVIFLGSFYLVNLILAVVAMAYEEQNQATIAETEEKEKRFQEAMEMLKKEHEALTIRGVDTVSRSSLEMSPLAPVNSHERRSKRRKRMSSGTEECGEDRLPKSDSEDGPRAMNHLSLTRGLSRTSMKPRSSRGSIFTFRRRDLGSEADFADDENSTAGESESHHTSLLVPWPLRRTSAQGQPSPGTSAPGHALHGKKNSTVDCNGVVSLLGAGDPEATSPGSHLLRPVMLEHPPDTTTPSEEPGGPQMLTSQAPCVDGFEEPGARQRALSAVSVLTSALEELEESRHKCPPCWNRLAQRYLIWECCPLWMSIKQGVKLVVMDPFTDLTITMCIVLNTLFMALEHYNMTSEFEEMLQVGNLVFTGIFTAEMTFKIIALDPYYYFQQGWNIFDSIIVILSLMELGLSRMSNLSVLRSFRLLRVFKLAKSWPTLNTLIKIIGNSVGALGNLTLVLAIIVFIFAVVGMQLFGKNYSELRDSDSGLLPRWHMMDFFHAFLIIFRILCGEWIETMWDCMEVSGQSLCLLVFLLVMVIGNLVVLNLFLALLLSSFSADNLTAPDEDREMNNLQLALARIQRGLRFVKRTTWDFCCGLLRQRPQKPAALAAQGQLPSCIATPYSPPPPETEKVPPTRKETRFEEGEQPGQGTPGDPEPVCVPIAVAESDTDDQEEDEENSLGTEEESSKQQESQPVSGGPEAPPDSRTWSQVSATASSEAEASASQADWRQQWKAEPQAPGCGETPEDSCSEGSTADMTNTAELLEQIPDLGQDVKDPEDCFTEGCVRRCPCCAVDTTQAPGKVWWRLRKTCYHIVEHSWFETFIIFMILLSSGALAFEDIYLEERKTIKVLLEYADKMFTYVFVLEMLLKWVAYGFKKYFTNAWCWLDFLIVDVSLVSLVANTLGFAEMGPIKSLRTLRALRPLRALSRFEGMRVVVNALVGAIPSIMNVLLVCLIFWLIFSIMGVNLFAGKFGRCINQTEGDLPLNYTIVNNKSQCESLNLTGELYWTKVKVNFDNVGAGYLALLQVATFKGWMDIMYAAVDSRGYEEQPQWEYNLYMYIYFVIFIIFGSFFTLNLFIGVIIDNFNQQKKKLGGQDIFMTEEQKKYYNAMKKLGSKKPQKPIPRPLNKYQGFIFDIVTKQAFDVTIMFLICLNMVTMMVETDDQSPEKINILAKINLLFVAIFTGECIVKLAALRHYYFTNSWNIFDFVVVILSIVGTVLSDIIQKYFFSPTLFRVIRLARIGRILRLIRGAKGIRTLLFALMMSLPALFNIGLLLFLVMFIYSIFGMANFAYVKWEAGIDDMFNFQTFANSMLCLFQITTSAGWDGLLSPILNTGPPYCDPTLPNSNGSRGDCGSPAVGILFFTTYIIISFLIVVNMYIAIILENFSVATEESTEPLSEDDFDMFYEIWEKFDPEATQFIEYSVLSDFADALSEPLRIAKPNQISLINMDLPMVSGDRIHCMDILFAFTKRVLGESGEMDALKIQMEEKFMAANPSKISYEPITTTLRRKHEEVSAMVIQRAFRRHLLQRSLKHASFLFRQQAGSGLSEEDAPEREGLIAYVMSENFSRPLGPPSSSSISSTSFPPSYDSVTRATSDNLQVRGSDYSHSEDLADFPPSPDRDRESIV
The target of assay [3] is Synaptic vesicular amine transporter (Rattus norvegicus, UniProt Q01827). The format is functional.
Chain of Synaptic vesicular amine transporter (Q01827 whole entry): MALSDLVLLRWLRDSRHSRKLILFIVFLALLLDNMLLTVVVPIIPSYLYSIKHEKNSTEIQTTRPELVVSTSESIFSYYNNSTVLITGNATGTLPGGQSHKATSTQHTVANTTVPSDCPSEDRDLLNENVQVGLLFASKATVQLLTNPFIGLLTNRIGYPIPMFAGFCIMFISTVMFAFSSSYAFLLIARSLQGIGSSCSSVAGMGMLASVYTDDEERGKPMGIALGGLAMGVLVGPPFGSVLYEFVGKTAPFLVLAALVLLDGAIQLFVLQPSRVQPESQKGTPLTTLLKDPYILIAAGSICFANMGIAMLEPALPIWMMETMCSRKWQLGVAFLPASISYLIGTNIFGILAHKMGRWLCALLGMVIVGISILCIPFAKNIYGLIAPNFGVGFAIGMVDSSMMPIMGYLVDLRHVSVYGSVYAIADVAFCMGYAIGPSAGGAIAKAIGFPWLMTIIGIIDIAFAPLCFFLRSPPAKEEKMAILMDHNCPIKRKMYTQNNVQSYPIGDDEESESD
A further assay has as its target D(1A) dopamine receptor (Homo sapiens, UniProt P21728).
Assay [4] has as its target 5-hydroxytryptamine receptor 2B (Homo sapiens, UniProt P41595).
The target of assay [5] is T1, Muscarinic acetylcholine receptor M1 (Homo sapiens, UniProt P11229).
T1 sequence (P11229 whole entry): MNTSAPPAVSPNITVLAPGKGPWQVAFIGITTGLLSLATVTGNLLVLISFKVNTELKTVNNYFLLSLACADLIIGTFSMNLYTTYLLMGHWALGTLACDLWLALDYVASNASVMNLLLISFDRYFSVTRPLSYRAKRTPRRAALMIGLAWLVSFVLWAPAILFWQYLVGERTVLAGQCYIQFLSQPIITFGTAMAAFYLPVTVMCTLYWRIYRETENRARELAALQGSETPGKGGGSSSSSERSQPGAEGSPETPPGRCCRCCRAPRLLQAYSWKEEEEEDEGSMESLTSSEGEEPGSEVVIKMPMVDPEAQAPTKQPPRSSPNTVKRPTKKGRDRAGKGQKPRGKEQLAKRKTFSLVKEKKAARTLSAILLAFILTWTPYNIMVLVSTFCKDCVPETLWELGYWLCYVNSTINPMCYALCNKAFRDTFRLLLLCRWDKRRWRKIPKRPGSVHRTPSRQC
The format is functional, cell-based.

For assay [6], the target named is T1, Muscarinic acetylcholine receptor M1. The format is functional, cell-based. The source holds these as a separate data set.
The target of assay [7] is T2, Muscarinic acetylcholine receptor M4 (Homo sapiens, UniProt P08173).
T2 sequence (P08173 whole entry): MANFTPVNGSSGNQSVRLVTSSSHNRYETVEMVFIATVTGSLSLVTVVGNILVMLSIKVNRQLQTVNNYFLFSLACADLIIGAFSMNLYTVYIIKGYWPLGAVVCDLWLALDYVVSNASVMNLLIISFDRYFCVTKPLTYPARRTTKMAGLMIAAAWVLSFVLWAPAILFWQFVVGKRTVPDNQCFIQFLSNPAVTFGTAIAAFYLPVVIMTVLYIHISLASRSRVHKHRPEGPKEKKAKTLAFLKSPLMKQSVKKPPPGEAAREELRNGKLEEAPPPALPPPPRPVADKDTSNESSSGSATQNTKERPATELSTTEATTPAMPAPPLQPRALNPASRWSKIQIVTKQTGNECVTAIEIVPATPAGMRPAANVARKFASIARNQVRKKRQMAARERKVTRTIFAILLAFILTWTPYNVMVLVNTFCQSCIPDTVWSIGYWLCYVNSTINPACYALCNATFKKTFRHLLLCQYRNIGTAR

In assay [8] the target is Vascular endothelial growth factor receptor 2 (Homo sapiens, UniProt P35968). The format is functional.
Chain of Vascular endothelial growth factor receptor 2 (P35968 whole entry): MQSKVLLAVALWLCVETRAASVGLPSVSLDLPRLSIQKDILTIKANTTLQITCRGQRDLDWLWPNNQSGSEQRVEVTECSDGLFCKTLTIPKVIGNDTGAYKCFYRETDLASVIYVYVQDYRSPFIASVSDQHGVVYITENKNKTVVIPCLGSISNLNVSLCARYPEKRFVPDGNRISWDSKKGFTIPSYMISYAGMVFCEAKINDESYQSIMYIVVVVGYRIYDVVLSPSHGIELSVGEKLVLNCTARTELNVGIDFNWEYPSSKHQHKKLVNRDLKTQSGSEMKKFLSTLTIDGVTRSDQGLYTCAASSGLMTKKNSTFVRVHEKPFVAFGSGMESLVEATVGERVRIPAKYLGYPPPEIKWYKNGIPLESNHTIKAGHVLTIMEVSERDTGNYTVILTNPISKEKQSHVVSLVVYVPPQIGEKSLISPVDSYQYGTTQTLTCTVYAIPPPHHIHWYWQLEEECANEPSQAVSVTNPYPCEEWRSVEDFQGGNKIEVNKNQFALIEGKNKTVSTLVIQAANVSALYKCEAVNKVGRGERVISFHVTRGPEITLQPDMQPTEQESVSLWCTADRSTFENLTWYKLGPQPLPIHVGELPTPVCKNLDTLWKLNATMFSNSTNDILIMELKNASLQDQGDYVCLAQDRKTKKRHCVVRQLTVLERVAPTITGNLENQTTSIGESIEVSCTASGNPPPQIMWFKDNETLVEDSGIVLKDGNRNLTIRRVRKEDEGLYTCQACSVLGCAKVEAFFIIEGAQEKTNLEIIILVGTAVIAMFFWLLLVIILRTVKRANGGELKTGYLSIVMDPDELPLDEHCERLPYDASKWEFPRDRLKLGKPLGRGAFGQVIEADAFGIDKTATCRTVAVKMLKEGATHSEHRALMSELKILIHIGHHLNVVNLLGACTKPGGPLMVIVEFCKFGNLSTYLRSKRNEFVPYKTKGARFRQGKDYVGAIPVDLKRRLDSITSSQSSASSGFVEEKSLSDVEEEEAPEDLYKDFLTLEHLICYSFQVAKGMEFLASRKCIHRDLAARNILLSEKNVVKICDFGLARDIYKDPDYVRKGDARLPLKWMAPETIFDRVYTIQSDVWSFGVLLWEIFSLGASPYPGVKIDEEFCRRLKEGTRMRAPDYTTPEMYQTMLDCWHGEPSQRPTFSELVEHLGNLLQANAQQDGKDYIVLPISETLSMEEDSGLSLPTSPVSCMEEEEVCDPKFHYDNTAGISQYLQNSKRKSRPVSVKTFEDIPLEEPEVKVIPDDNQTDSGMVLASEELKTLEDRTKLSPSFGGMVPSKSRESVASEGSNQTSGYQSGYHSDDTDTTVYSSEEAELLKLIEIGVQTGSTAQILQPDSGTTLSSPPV
Another assay deals with T3, Thromboxane A2 receptor (Homo sapiens, UniProt P21731).
T3 sequence (P21731 whole entry): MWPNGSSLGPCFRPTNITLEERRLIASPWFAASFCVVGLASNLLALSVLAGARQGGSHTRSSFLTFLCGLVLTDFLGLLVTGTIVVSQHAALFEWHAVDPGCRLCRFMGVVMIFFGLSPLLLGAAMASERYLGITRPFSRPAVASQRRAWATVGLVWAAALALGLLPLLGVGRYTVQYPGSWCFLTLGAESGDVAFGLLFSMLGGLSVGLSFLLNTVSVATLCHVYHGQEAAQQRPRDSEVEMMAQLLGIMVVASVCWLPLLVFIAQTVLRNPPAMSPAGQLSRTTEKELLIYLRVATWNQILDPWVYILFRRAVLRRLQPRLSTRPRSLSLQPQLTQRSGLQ
The format is functional.

Assay [9] addresses T4, Muscarinic acetylcholine receptor M5 (Homo sapiens, UniProt P08912).
T4 sequence (P08912 whole entry): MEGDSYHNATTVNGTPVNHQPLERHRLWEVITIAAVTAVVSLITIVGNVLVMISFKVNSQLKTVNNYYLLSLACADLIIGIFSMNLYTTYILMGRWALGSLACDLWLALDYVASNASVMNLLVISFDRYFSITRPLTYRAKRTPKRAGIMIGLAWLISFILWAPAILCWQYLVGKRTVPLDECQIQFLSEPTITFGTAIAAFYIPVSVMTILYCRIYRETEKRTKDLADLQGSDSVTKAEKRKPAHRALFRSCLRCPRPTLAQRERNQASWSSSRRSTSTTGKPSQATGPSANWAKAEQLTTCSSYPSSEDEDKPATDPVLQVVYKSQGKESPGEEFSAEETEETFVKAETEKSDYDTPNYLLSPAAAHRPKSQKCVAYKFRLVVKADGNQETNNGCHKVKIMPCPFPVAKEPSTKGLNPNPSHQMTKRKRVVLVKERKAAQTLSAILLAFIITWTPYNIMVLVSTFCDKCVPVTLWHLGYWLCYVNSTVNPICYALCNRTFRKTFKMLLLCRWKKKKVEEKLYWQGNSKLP
Further: assay procedure not described here.

Chain of D(1A) dopamine receptor (P21728 whole entry): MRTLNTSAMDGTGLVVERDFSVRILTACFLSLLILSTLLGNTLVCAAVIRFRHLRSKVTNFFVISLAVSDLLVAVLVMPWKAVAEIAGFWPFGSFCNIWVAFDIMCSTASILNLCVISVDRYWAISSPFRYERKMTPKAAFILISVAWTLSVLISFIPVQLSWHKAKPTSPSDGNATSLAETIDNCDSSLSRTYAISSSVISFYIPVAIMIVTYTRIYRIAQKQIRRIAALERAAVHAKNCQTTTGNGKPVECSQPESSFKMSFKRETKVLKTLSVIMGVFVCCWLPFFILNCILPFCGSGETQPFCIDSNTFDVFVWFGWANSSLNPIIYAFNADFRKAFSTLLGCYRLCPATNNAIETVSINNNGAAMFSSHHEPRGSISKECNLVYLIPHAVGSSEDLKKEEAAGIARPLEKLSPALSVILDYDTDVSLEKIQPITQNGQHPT
Chain of 5-hydroxytryptamine receptor 2B (P41595 whole entry): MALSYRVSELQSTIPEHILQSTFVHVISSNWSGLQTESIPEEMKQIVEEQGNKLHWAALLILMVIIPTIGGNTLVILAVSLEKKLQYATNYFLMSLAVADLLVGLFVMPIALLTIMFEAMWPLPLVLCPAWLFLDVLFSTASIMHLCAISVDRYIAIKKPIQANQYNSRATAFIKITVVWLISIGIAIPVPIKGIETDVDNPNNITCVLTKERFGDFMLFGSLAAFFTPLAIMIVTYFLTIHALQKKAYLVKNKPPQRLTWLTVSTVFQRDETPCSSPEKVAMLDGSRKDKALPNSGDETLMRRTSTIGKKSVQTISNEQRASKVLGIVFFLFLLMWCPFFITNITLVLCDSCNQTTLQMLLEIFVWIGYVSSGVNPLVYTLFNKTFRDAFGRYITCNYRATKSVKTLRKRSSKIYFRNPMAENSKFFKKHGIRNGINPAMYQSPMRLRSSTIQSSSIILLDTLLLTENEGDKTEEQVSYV

For `CC[C@@H](C(N)=O)N1CCCC1=O`, the AC50 (usually the midpoint of the concentration-response curve, whichever way the signal moves) in assay [1] is above 50 µM; in [2], above 50 µM; in assay [3], above 30 µM.
`CC(=O)c1ccc2c(c1)N(CCCN(C)C)c1ccccc1S2` [ACEPROMAZINE] returned an AC50 on D(1A) dopamine receptor of 66 nM.
Molecule `C=CCN1C[C@H](C(=O)N(CCCN(C)C)C(=O)NCC)C[C@@H]2c3cccc4[nH]cc(c34)C[C@H]21` [CABERGOLINE] showed an AC50 in [4] of 14.8 nM.
In the case of `NC1CCN(c2c(F)cc3c(=O)c(C(=O)O)cn(C4CC4)c3c2Cl)C1` (stereo unspecified) [CLINAFLOXACIN], the AC50 was 40 µM in assay [5] and above 300 µM in assay [6].
Turning to `CCOc1ccccc1OCC1CNCCO1` (stereo unspecified) [VILOXAZINE], the AC50 in assay [7] was above 10 µM; in assay [8], above 30 µM; on Thromboxane A2 receptor, above 30 µM; in assay [9] it was above 10 µM.
